Experimental data reported in paper PMC12715762, “Discovery of VU6052254: A Novel, Potent M1 Positive Allosteric Modulator” (ACS Chemical Neuroscience, 2025).

How the values were obtained:
[1] = plasma protein binding, equilibrium dialysis (human); assay type: in vitro ADME; conditions: pH 7.4, read-out: fu,plasma
Experimental: (§1) Plasma protein binding and Brain homogenate binding: Determination of fraction unbound (f u) in plasma was conducted in vitro via equilibrium dialysis using HTDialysis (HTD) membrane plates. The top half of the plate was filled with 100 uL of Dubelco’s Phosphate Buffered Saline, pH 7.4 (DPBS). Compounds were diluted into plasma from each species (5 µM final concentration), which was aliquoted in triplicate to the ‘bottom half’ of the prepared HTD plate wells. The HTD plate was sealed and incubated for 6 hours at 37 °C. Following incubation, each well (both top and bottom halves) were transferred (20 µL) to the corresponding wells of a 96-shallow-well (V-bottom) plate. […]
(§2) The unbound fraction (f u) was calculated following the equation below, and mean values for each species were calculated from 3 replicates.
(§3) A similar approach was used to determine the degree of brain homogenate binding, which employed the same methodology and procedure with the following modifications: 1) a final compound concentration of 1 μM was used, 2) naïve rat brains were homogenized in DPBS (1:3 composition of brain: DPBS, w/w) using a Mini-Bead Beater™ machine in order to obtain brain homogenate, which was then treated in the same manner as the plasma samples in the previously described plasma protein binding assay. Fraction unbound for both plasma and brain samples was determined using Equation 4. […]

[2] = plasma protein binding, equilibrium dialysis (dog); assay type: in vitro ADME; conditions: pH 7.4, dog (d), read-out: fu,plasma
Experimental: as §1, §2, §3

CYP 3A4 = CYP 3A4 (Homo sapiens, UniProt P08684); test: CYP450 inhibition; assay type: in vitro ADME
Chain of CYP 3A4 (P08684 whole entry): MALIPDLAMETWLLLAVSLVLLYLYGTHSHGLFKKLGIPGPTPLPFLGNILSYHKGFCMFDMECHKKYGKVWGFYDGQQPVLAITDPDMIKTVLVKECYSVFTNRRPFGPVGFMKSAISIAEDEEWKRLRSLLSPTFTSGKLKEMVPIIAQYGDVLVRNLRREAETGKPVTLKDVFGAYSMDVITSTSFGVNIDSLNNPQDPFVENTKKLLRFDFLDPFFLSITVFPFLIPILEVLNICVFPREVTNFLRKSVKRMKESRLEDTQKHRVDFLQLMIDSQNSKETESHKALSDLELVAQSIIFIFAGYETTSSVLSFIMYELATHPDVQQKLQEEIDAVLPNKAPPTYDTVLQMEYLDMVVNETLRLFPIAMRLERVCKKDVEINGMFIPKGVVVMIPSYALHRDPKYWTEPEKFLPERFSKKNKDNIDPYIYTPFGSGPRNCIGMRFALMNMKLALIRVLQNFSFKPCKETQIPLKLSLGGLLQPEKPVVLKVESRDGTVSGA

[3] = 14-day rat toxicology and toxicokinetic study; assay type: in vivo; conditions: both sexes, rat, plasma, po, PEG-400, rat
Experimental: (§4) PAM 7, after a 250 g scale-up, advanced into 14-day rat toxicology studies, with vehicle (PEG-400), 30 mg/kg PO and 300 mg/kg PO cohorts, N = 6 per sex per cohort. […] Higher serum creatinine concentrations were however noted in males at both dose levels (+100% at 30 mg/kg/day and +300% at 300 mg/kg/day). […] Based on the observations of correlative clinical and anatomic kidney toxicity findings in an exploratory 14-day toxicity and toxicokinetics rat study, in conjunction with uncertain margins to projected systemic human therapeutic efficacy and CYP3A4 induction concerns, the development of PAM 7 was discontinued.

rats = test: 14-day rat toxicology and toxicokinetic study; assay type: in vivo; conditions: for cholinergic/SLUDGE adverse effects in 14-day rat study: 30 and 300 mg/kg PO; for change in serum creatinine concentration: males
Experimental: as §4

GABAA, Muscimol, Central = test: Eurofins radioligand binding; conditions: Rat
Glutamate, NMDA, Agonism = test: Eurofins radioligand binding; conditions: Rat
Melatonin MT1 = Melatonin MT1 (Homo sapiens, UniProt P48039); test: Eurofins radioligand binding
Chain of Melatonin MT1 (P48039 whole entry): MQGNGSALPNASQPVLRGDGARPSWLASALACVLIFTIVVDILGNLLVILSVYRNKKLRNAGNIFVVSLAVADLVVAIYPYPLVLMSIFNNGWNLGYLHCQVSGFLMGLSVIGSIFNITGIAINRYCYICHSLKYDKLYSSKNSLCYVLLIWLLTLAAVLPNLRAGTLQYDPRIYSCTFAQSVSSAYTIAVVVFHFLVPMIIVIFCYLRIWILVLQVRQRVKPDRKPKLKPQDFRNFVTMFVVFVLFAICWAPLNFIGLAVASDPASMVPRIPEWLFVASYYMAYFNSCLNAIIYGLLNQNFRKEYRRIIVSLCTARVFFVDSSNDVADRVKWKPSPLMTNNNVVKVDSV

Opiate μ (OP3, MOP) = Opiate μ (OP3, MOP) (Homo sapiens, UniProt P35372); test: Eurofins radioligand binding
Chain of Opiate μ (OP3, MOP) (P35372 whole entry): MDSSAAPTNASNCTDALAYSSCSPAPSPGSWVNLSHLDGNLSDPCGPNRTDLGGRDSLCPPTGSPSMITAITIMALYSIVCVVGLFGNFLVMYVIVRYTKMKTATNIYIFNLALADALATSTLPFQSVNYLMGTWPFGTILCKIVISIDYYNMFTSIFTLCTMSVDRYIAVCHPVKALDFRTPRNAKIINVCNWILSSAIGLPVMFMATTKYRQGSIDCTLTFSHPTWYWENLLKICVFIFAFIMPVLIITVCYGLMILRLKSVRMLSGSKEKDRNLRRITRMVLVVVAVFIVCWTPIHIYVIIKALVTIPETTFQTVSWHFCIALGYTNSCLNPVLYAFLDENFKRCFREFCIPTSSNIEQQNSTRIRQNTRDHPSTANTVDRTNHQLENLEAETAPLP

Phorbol Ester = test: Eurofins radioligand binding; conditions: Mouse
Tachykinin NK1 = Tachykinin NK1 (Homo sapiens, UniProt P25103); test: Eurofins radioligand binding
Chain of Tachykinin NK1 (P25103 whole entry): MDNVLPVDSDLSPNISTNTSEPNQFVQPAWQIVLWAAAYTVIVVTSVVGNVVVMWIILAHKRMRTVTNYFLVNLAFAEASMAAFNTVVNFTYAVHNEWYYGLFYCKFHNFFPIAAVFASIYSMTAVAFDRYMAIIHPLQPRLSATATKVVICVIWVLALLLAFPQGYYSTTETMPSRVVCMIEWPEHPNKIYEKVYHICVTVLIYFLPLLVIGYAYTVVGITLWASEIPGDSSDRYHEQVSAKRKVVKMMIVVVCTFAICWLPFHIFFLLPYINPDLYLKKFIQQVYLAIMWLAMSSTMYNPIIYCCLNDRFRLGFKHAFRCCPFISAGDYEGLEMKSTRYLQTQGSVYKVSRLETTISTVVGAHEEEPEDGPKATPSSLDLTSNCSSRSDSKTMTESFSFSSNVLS

[4] = 300 mg/kg, Day 14, 300 mg/kg PO

Cn1cc2c(-c3cc(F)c(CN4Cc5ncccc5C4=O)c(F)c3)ccc(C(C)(C)O)c2n1 [compound 7]
fraction unbound at 6 h, 5 µM [1]: 0.037
fraction unbound at 6 h, 5 µM [2]: 0.117
IC50 (CYP 3A4): > 30 µM
AUC(0-t) ([3]; 30 mg/kg, Day 1, 30 mg/kg PO): 224 µM·h
Cmax ([3]; 30 mg/kg, Day 1, 30 mg/kg PO): 20.9 µM
AUC(0-t) ([3]; 30 mg/kg, Day 14, 30 mg/kg PO): 107 µM·h
Cmax ([3]; 30 mg/kg, Day 14, 30 mg/kg PO): 10 µM
AUC(0-t) ([3]; 300 mg/kg, Day 1, 300 mg/kg PO): 758 µM·h
Cmax ([3]; 300 mg/kg, Day 1, 300 mg/kg PO): 37.9 µM
AUC(0-t) [3, 4]: 909 µM·h
Cmax [3, 4]: 52.9 µM
microscopic pathology of kidney (rats; 300 mg/kg/day, result in words): pyknotic cells were also seen in collecting tubules, and less extensively, in the renal papilla
cholinergic/SLUDGE adverse effects in 14-day rat study (rats; result in words): No cholinergic/SLUDGE adverse effects were observed
cholinergic/SLUDGE adverse effects in 14-day rat study (rats; result in words, listed as VU6052254): no cholinergic adverse effects
microscopic pathology of renal cortex and medulla (rats; both dose levels, result in words): dose-related increase in number of pyknotic cells in the lumen of descending tubules/proximal collecting tubules
total plasma concentration relative to the plasma concentration at MED in the CFC assay (0.3 mg/kg PO) (rats; first of the two printed values (30 mg/kg cohort implied)): 125 x
fibrinogen concentration (rats; males administered 300 mg/kg, result in words): minimally higher fibrinogen concentration
hematology test results (rats; males administered up to 30 mg/kg, result in words): no PAM 7-related effects noted in hematology test results
change in serum creatinine concentration (rats; 30 mg/kg/day): +100%
change in serum creatinine concentration (rats; 300 mg/kg/day): +300%
organ weights or histology (rats; result in words): no gross changes on organ weights or histology
total plasma concentration relative to the plasma concentration at MED in the CFC assay (0.3 mg/kg PO) (rats; second of the two printed values (300 mg/kg cohort implied)): 227 x
% Inhibition at 10 µM (GABAA, Muscimol, Central): -10%
% Inhibition at 10 µM (Glutamate, NMDA, Agonism): -3%
inhibition at 10 µM (Melatonin MT1): -1%
inhibition at 10 µM (Opiate μ (OP3, MOP)): 2%
% Inhibition at 10 µM (Phorbol Ester): 12%
inhibition at 10 µM (Tachykinin NK1): 4%
